Values joined by “and” are separate entries in the source; they are usually repeats but may differ in a detail not shown here. Identical values can stand only once. Toxic doses and inconclusive results are not listed. The calls were made as follows: active = survival T/C of 150% or more; inactive = T/C below 125% in these data.
Test system: CD2F1 mice, L1210 leukemia ip, survival T/C
Test: NCI In Vivo Anticancer Drug Screen. Data for tumor model L1210 Leukemia (intraperitoneal) in CD2F1 (CDF1) mice
Conditions: endpoint: mean survival time, higher = longer survival
In short: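 Each value reflects a quotient of treated over vehicle control outcomes in mice with a transplanted tumor.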

[1] = dose: 100.0 mg/kg/injection, schedule: Q01DX009 (ip), vehicle: saline with Tween-80
[2] = dose: 100.0 mg/kg/injection, schedule: Q04DX003 (ip), vehicle: saline with Tween-80
[3] = dose: 200.0 mg/kg/injection, schedule: Q01DX009 (ip), vehicle: saline with Tween-80
[4] = dose: 200.0 mg/kg/injection, schedule: Q04DX003 (ip), vehicle: saline with Tween-80
[5] = dose: 400.0 mg/kg/injection, schedule: Q01DX009 (ip), vehicle: saline with Tween-80
[6] = dose: 400.0 mg/kg/injection, schedule: Q04DX003 (ip), vehicle: saline with Tween-80
[7] = dose: 100.0 mg/kg/injection, schedule: Q04DX002 (ip), vehicle: saline with Tween-80
[8] = dose: 100.0 mg/kg/injection, schedule: Q01DX009 (ip), vehicle: saline sonified
[9] = dose: 200.0 mg/kg/injection, schedule: Q01DX009 (ip), vehicle: saline sonified
[10] = dose: 400.0 mg/kg/injection, schedule: Q01DX009 (ip), vehicle: saline sonified
[11] = dose: 100.0 mg/kg/injection, schedule: Q01DX001 (ip), vehicle: saline with Tween-80

Measured: T/C

OC1c2ccccc2CC1N1CCCCC1 (centres undefined)
inactive: dose: 25.0 mg/kg/injection, schedule: Q01DX009 (ip), vehicle: saline with Tween-80 95 % of control | dose: 50.0 mg/kg/injection, schedule: Q01DX009 (ip), vehicle: saline with Tween-80 101 % of control | [1] 98 % of control

CCOC(=O)/C=C/C(=O)O.[Cu+2]
inactive: dose: 1.56 mg/kg/injection, schedule: Q04DX003 (ip), vehicle: saline 108 % of control | dose: 3.12 mg/kg/injection, schedule: Q04DX003 (ip), vehicle: saline 108 % of control | dose: 6.25 mg/kg/injection, schedule: Q04DX003 (ip), vehicle: saline 104 % of control

S=C(Nc1ccc(Cl)cc1)Nc1ccc(Cc2ccc(NC(=S)Nc3ccc(Cl)cc3)cc2)cc1
inactive: dose: 100.0 mg/kg/injection, schedule: Q01DX001 (ip), vehicle: Klucel (hydroxypropylcellulose) (HPC) 93 % of control | dose: 200.0 mg/kg/injection, schedule: Q01DX001 (ip), vehicle: Klucel (hydroxypropylcellulose) (HPC) 92 % of control | dose: 400.0 mg/kg/injection, schedule: Q01DX001 (ip), vehicle: Klucel (hydroxypropylcellulose) (HPC) 93 % of control

O=c1[nH]c(=O)n(C2CC(O)C(CO)O2)cc1C1SCCS1 (centres undefined)
inactive: dose: 3.8 mg/kg/injection, schedule: Q01DX005 (ip), vehicle: water 102 % of control | dose: 7.5 mg/kg/injection, schedule: Q01DX005 (ip), vehicle: water 98 % of control | dose: 15.0 mg/kg/injection, schedule: Q01DX005 (ip), vehicle: water 95 % of control | dose: 30.0 mg/kg/injection, schedule: Q01DX005 (ip), vehicle: water 87 % of control | dose: 60.0 mg/kg/injection, schedule: Q01DX005 (ip), vehicle: water 106 % of control

Cc1cnc(O[Si](C)(C)C)nc1O[Si](C)(C)C
inactive: [1] 97 % of control | [2] 97 % of control | [3] 96 % of control | [4] 98 % of control | [5] 103 % of control | [6] 101 % of control

C=C(CCCCCCCCCCCCCCCC)C(=O)O
inactive: dose: 25.0 mg/kg/injection, schedule: Q04DX002 (ip), vehicle: saline with Tween-80 90 % of control | dose: 50.0 mg/kg/injection, schedule: Q04DX002 (ip), vehicle: saline with Tween-80 87 % of control | [7] 94 % of control

Cn1c(-c2ccccc2N=NN2CCCCC2)nc(=N)c2ccccc21
inactive: dose: 6.25 mg/kg/injection, schedule: Q01DX005 (ip), vehicle: water 95 % of control | dose: 12.5 mg/kg/injection, schedule: Q01DX005 (ip), vehicle: water 95 % of control

Cc1ccc(Cl)c2nc(-c3ccccc3)ccc12
inactive: dose: 37.5 mg/kg/injection, schedule: Q01DX009 (ip), vehicle: saline 105 % of control | dose: 75.0 mg/kg/injection, schedule: Q01DX009 (ip), vehicle: saline 116 % of control | dose: 75.0 mg/kg/injection, schedule: Q04DX003 (ip), vehicle: saline 112 % of control | dose: 150.0 mg/kg/injection, schedule: Q01DX009 (ip), vehicle: saline 101 % of control | dose: 150.0 mg/kg/injection, schedule: Q04DX003 (ip), vehicle: saline 103 % of control | dose: 300.0 mg/kg/injection, schedule: Q04DX003 (ip), vehicle: saline 93 % of control

CCOC(=O)C(=O)c1c[nH]c2ccccc12
inactive: [8] 89 % of control | [9] 95 % of control | [10] 94 % of control

O=C1c2ccccc2C(=O)N1c1c2ccccc2cc2ccccc12
inactive: [1] 95 % of control | [3] 101 % of control | [5] 90 % of control

COc1c(C)c2c(c(O)c1C/C=N\O)C(=O)OC2
inactive: [7] 100 % of control | dose: 200.0 mg/kg/injection, schedule: Q04DX002 (ip), vehicle: saline with Tween-80 100 % of control | dose: 400.0 mg/kg/injection, schedule: Q04DX002 (ip), vehicle: saline with Tween-80 100 % of control

Nc1nc(Nc2ccc(C(=O)O)cc2)n[nH]1
inactive: dose: 100.0 mg/kg/injection, schedule: Q01DX001 (ip), vehicle: saline sonified 96 % of control | [8] 105 % of control | dose: 200.0 mg/kg/injection, schedule: Q01DX001 (ip), vehicle: saline sonified 104 % of control | [9] 96 % of control | dose: 400.0 mg/kg/injection, schedule: Q01DX001 (ip), vehicle: saline sonified 96 % of control | [10] 88 % of control

Cn1c(-c2ccccc2)nc2c(N)ncnc21
inactive: [11] 93 % of control | dose: 400.0 mg/kg/injection, schedule: Q01DX001 (ip), vehicle: saline with Tween-80 87 % of control

O=P1(N(CCCl)CCCl)NCC2(O1)C1CC3CC(C1)CC2C3 (centres undefined)
inactive: dose: 15.6 mg/kg/injection, schedule: Q01DX001 (ip), vehicle: distilled water + Tween-80 101 % of control | dose: 31.3 mg/kg/injection, schedule: Q01DX001 (ip), vehicle: distilled water + Tween-80 96 % of control | dose: 62.5 mg/kg/injection, schedule: Q01DX001 (ip), vehicle: distilled water + Tween-80 101 % of control | dose: 125.0 mg/kg/injection, schedule: Q01DX001 (ip), vehicle: distilled water + Tween-80 96 % of control | dose: 250.0 mg/kg/injection, schedule: Q01DX001 (ip), vehicle: distilled water + Tween-80 96 % of control | dose: 500.0 mg/kg/injection, schedule: Q01DX001 (ip), vehicle: distilled water + Tween-80 91 % of control

CC(=O)OC1CCC2(C)C3=CCC4(C)C(C(C)/C=C\C(C)C(C)C)CCC4C34C=CC2(C1)C1C(=O)OC(=O)C14 (centres undefined)
inactive: dose: 50.0 mg/kg/injection, schedule: Q01DX001 (ip), vehicle: saline with Tween-80 97 % of control | [11] 91 % of control | [7] 86 % of control | dose: 200.0 mg/kg/injection, schedule: Q01DX001 (ip), vehicle: saline with Tween-80 95 % of control

O=C(N/N=C/c1ccc2c(c1)CCC2)c1ccc([N+](=O)[O-])cc1
inactive: [2] 95 % of control | [4] 89 % of control | [6] 98 % of control

Nc1cc(Cl)nnc1Cl
inactive: dose: 50.0 mg/kg/injection, schedule: Q01DX009 (ip), vehicle: other 97 % of control | dose: 100.0 mg/kg/injection, schedule: Q01DX009 (ip), vehicle: other 103 % of control | dose: 100.0 mg/kg/injection, schedule: Q04DX003 (ip), vehicle: saline 98 % of control | dose: 200.0 mg/kg/injection, schedule: Q01DX009 (ip), vehicle: other 97 % of control | dose: 200.0 mg/kg/injection, schedule: Q04DX003 (ip), vehicle: saline 101 % of control

N#CCSc1nc(N)nc2nc[nH]c12
inactive: [1] 103 % of control | dose: 100.0 mg/kg/injection, schedule: Q04DX003 (ip), vehicle: saline sonified 102 % of control | [3] 116 % of control | dose: 200.0 mg/kg/injection, schedule: Q04DX003 (ip), vehicle: saline sonified 105 % of control | dose: 400.0 mg/kg/injection, schedule: Q04DX003 (ip), vehicle: saline sonified 107 % of control

CC(=O)OC1COC(n2nnc(C#N)c2C#N)C(OC(C)=O)C1OC(C)=O (centres undefined)
inactive: dose: 12.5 mg/kg/injection, schedule: Q01DX005 (ip), vehicle: distilled water + Tween-80 103 % of control and 98 % of control | dose: 25.0 mg/kg/injection, schedule: Q01DX005 (ip), vehicle: distilled water + Tween-80 97 % of control and 103 % of control | dose: 50.0 mg/kg/injection, schedule: Q01DX005 (ip), vehicle: distilled water + Tween-80 98 % of control and 101 % of control | dose: 100.0 mg/kg/injection, schedule: Q01DX005 (ip), vehicle: distilled water + Tween-80 104 % of control and 106 % of control | dose: 200.0 mg/kg/injection, schedule: Q01DX005 (ip), vehicle: distilled water + Tween-80 95 % of control

O=C(C1=CC=CC1=P(c1ccccc1)(c1ccccc1)c1ccccc1)C(Cl)(Cl)Cl
inactive: [1] 94 % of control | [3] 107 % of control | [5] 107 % of control

From PubChem BioAssay AID256 (DTP/NCI, 2004)
